Assay [1] deals with calpain activity in rat glial cells (C6). Briefly: In situ calpain activity in rat glial cells C6 stimulated by maitotoxin. Type of assay: cell-based. The conditions noted are these: read-out: Inhibition human calpain I, in situ (C6) [IC50 (nM)]; n = 3; maitotoxin 1 nM; 1 h 30 min. On the procedure:
Human neuroblastomas SHSY5Y and rat glial cells C6 are seeded at a rate of 50,000 and 25,000 cells respectively per well on 96-well plates in DMEM 10% FBS. The next day, the cells which have adhered are washed 3 times in DMEM medium without serum and 40 mM Hepes. 100 microlitres of product B is placed in the wells. After incubation for 1 hour at 37° C. under an atmosphere of 5% CO2, 10 μl containing the fluorescent substrate of calpain (Suc-Leu-Tyr-AMC) and maitotoxin (Sigma, ref: M-9159), in order to obtain a final concentration in the well of 100 μM and of 1 nM respectively are added.
In order to determine the total activity of the cell enzyme, wells containing no product are added to the plate (100 μL DMSO 100th plus 10 μl of MTX and substrate). The background noise is determined by adding control wells with no MTX. Each concentration of the products (0.3 μM to 200 μM for the SHSY5Y's and 0.01 μM to 100 μM for the C6's) is tested in triplicate. The plates are shaken, the fluorescence is read at 380/460 nm using the Victor at T zero. Incubation takes place for four hours for the SHSY5Y and 1 hour 30 minutes for the C6 cells at 30° C. in darkness.

In the next assay the target is T1, human calpain I (Homo sapiens, UniProt P07384).
T1 construct: enzyme purified from human erythrocytes; purchased Calbiochem 208713; host or cells: human erythrocytes (native tissue source)
T1 sequence (P07384 1-714): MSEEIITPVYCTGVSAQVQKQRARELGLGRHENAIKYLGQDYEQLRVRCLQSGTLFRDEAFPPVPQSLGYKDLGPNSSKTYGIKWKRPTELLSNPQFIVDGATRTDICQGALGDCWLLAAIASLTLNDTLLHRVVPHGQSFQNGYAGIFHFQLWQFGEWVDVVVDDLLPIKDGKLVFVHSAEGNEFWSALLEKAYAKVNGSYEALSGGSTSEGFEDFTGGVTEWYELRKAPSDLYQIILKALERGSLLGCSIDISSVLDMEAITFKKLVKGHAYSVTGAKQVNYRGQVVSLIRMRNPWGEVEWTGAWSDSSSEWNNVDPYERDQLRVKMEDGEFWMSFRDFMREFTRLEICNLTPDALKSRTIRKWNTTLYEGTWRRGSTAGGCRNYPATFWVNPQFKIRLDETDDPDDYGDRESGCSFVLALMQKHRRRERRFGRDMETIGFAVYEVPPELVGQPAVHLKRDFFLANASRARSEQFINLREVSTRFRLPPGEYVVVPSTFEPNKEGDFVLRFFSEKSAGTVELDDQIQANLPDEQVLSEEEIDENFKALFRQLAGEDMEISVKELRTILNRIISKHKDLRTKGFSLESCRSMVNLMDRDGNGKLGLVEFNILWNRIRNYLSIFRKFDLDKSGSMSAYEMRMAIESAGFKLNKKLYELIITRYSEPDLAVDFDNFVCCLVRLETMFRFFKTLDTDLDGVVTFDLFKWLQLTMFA
T1 sequence (P04632 1-268 partner): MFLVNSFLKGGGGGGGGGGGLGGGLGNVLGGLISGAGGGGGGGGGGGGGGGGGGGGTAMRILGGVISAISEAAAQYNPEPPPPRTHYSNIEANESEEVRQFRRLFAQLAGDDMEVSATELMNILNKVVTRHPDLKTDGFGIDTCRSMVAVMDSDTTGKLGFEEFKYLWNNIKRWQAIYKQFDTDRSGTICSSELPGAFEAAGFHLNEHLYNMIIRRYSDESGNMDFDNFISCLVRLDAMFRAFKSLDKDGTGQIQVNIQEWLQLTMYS
Kind of assay: Effects on human calpain I (acellular, Suc-Leu-Tyr-AMC fluorescence). Type of assay: biochemical. To be noted: enzyme purified from human erythrocytes; 1 h at 25°C; read-out: Inhibition human calpain I, acellular [IC50 (nM)]. On the procedure:
The test consists of measuring the activity of the enzyme (enzyme purified from human erythrocytes) which is incubated in a buffer in the presence of a peptide substrate coupled with a fluorochrome (amino-methylcourmarin, AMC) and calcium. The enzyme activated by the calcium, proteolyses the substrate and releases the AMC fragment. The AMC released fluoresces at 460 nm under excitation at 380 nm. The activity of the enzyme is therefore proportional to the quantity of fluorescence i.e. of free AMC fragment. The fluorescence (380/460 nm) is measured using a multi-well fluorimeter (Victor 2, Wallac).
Assay is carried out in 96-well microplates with transparent bottoms and black walls in which 10 μl per well of substance to be tested in DMSO 10%, 45 μl of reaction mixture containing the human calpain I at 2.2 U/ml (Calbiochem, ref: 208713), the Suc Leu Tyr-AMC substrate (Bachem, ref: I-1355) at 1.1 mM in a buffer (Tris-HCl 110 mM; NaCl 110 mM; EDTA 2.2 mM; EGTA 2.2 mM; mercaptoethanol 1.1 mM) are distributed. The reaction is initiated by adding 45 μl of CaCl2 22mM. To determine the background noise, control wells without calcium are added to the plate (10 μL DMSO 10%+45 μL of buffer with the enzyme and the susbtrate +45 μL H2O). In order to determine the total activity of the enzyme control wells containing no product are added to the plate (10 μL DMSO 10%+45 μL of buffer with the enzyme and the substrate +45 μL of CaCl2 22 mM ). Each concentration of the products (0.1 nM to 10 μM) is tested in duplicate. The plates are shaken and incubation takes place for one hour at 25° C. in darkness. The fluorescence is read at 380/460 nm using the Victor.

For the compound `CC(C)C[C@@H](C=O)NC(=O)[C@H](CC(C)C)NC(=O)OCc1ccccc1` [EXAMPLE 1 B, benzyl (1S)-1-({[(1S)-1-formyl-3-methylbutyl]amino}carbonyl)-3-methylbutylcarbamate], the IC50 (usually the concentration that inhibits the measured activity by half) in assay [1] was found to be 1750 ± 340 nM; on human calpain I, 6 nM.
